Values quoted from earlier work, collected in article PMC6413085, “A Validated HPLC-MS/MS Assay for 14-O-[(4,6-Diaminopyrimidine-2-yl)thioacetyl] Mutilin in Biological Samples and Its Pharmacokinetic, Distribution and Excretion via Urine and Feces in Rats” (Molecules, 2019).
Where two headings read alike, the source gives them in different places.

Experiments:
[1] = rabbit, in vivo, iv, 25 mg/kg; cited from earlier work
[2] = rat, in vivo, cited from earlier work; for time at which Cmax was achieved: 5 mg/kg
[3] = in vivo; cited from earlier work

SMILES	time at which Cmax was achieved [1]	time at which Cmax was achieved ([2]; iv)	time at which Cmax was achieved ([2]; po)	absolute bioavailability following oral administration ([2]; po)	absolute bioavailability following oral administration [3]
C=CC1(C)CC(OC(=O)CSc2nc(N)cc(O)n2)C2(C)C(C)CCC3(CCC(=O)C32)C(C)C1O (stereo not drawn) [14-O-[(4-amino-6-hydroxy-pyrimidine-2-yl)thioacetyl] mutilin]	0.08 h				
C=C[C@]1(C)C[C@@H](OC(=O)CSc2nnc(N)s2)[C@]2(C)[C@H](C)CC[C@]3(CCC(=O)[C@H]32)[C@@H](C)[C@@H]1O [14-O-[(2-amino-1,3,4-thiadiazole-5-yl)thioacetyl] mutilin]		0.08 h	0.75 h	35.81%	
C=C[C@]1(C)C[C@@H](OC(=O)CSC(C)(C)CNC(=O)[C@H](N)C(C)C)[C@]2(C)[C@H](C)CC[C@]3(CCC(=O)[C@H]32)[C@@H](C)[C@@H]1O [valnemulin]				100%	36.68%
